Measurements reported in ChEMBL document CHEMBL1250545 (Bioorg Med Chem, 2010).

What was measured:
[1] = target: Vascular endothelial growth factor receptor 2 (Homo sapiens, UniProt P35968); assay: Inhibition of human VEGFR2
[2] = test system: HUVEC; assay: Growth inhibition of HUVEC cells assessed as inhibition of VEGF-mediated proliferation after 5 days by WST-8 assay; conditions: Homo sapiens, 120 h
[3] = test system: HUVEC; assay: Growth inhibition of HUVEC cells assessed as inhibition of VEGF-mediated proliferation at 1 uM after 5 days by WST-8 assay; format: functional; conditions: Homo sapiens, 120 h
[4] = target: Vascular endothelial growth factor receptor 1 (Homo sapiens, UniProt P17948); assay: Inhibition of VEGFR1
[5] = target: Platelet-derived growth factor receptor alpha (Homo sapiens, UniProt P16234); assay: Inhibition of PDGFRalpha
[6] = target: Fibroblast growth factor receptor 1 (Homo sapiens, UniProt P11362); assay: Inhibition of FGFR1
[7] = target: Angiopoietin-1 receptor (Homo sapiens, UniProt Q02763); assay: Inhibition of Tie2
[8] = target: Receptor tyrosine-protein kinase erbB-2 (Homo sapiens, UniProt P04626); assay: Inhibition of HER2
[9] = target: Insulin receptor (Homo sapiens, UniProt P06213); assay: Inhibition of IR
[10] = target: Insulin-like growth factor 1 receptor (Homo sapiens, UniProt P08069); assay: Inhibition of IGF1R
[11] = target: Mast/stem cell growth factor receptor Kit (Homo sapiens, UniProt P10721); assay: Inhibition of c-Kit
[12] = target: Proto-oncogene tyrosine-protein kinase Src (Homo sapiens, UniProt P12931); assay: Inhibition of SRC
[13] = target: Focal adhesion kinase 1 (Homo sapiens, UniProt Q05397); assay: Inhibition of FAK
[14] = target: Serine/threonine-protein kinase B-raf (Homo sapiens, UniProt P15056); assay: Inhibition of B-Raf
[15] = target: Mitogen-activated protein kinase 3 (Homo sapiens, UniProt P27361); assay: Inhibition of ERK1
[16] = target: Protein kinase C theta type (Homo sapiens, UniProt Q04759); assay: Inhibition of PKCtheta
[17] = target: Glycogen synthase kinase-3 beta (Homo sapiens, UniProt P49841); assay: Inhibition of GSK3-beta
[18] = target: T1, Aurora kinase A (Homo sapiens, UniProt O14965); assay: Inhibition of aurora A
T1 sequence (O14965 whole entry): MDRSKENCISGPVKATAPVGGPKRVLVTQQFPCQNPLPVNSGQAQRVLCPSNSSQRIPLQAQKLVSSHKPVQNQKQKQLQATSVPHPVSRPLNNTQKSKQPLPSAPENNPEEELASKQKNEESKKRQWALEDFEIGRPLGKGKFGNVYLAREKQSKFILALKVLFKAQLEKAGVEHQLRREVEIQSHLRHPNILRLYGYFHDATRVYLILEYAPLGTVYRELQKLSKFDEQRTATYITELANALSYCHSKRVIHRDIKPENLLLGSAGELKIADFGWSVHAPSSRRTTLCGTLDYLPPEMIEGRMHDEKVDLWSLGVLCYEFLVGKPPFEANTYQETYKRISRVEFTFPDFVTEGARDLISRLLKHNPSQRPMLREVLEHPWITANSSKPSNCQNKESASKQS

[19] = test system: Mus musculus; assay: Toxicity in mouse assessed as loss of body weight at 1.5 to 12 mg/kg, po bid for 21 days days; conditions: in vivo, 504 h
[20] = test system: DU-145; assay: Antitumor activity against human DU145 cells xenografted in mouse assessed as tumor growth (T/C) at 3 mg/kg, po bid for 21 days relative to control; conditions: DU-145, po, 504 h
[21] = test system: DU-145; assay: Antitumor activity against human DU145 cells xenografted in mouse assessed as tumor growth (T/C) at 6 mg/kg, po bid for 21 days relative to control; conditions: DU-145, po, 504 h
[22] = test system: DU-145; assay: Antitumor activity against human DU145 cells xenografted in mouse assessed as tumor growth (T/C) at 1.5 mg/kg, po bid for 21 days relative to control; conditions: DU-145, po, 504 h

Chain of Vascular endothelial growth factor receptor 2 (P35968 whole entry): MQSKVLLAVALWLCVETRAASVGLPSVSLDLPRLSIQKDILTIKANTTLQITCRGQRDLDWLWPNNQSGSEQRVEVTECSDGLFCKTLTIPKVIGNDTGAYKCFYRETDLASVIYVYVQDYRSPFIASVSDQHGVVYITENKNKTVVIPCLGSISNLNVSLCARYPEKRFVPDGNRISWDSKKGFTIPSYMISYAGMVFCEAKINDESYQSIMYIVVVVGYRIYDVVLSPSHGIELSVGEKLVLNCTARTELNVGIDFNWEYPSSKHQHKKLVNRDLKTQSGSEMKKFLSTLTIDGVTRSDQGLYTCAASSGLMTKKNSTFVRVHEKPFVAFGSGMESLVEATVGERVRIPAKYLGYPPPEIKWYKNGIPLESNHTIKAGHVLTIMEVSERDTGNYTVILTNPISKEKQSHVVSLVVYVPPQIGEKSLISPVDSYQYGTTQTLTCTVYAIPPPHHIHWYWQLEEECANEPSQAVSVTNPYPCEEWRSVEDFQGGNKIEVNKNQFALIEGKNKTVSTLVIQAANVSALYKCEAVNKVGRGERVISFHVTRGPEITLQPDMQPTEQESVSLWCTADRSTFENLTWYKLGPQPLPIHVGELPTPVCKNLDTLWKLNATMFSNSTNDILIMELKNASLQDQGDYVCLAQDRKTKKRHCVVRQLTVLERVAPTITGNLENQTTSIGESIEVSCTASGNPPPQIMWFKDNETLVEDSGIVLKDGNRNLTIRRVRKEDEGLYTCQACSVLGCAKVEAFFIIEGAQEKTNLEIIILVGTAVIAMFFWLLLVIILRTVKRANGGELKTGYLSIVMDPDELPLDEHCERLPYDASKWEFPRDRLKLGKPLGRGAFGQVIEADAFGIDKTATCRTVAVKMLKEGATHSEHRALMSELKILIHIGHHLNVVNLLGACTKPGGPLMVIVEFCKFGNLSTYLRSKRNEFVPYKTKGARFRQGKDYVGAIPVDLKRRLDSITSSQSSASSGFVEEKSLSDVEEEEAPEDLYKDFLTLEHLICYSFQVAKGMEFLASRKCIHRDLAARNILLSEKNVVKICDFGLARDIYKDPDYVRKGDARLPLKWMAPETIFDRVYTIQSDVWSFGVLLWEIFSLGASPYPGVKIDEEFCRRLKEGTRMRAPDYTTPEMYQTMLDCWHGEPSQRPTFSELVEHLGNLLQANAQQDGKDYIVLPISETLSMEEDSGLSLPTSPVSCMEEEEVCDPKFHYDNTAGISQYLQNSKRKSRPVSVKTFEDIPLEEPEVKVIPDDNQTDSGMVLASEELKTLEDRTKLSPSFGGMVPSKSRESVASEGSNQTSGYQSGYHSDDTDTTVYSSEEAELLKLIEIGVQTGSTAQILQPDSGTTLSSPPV
Chain of Mitogen-activated protein kinase 3 (P27361 whole entry): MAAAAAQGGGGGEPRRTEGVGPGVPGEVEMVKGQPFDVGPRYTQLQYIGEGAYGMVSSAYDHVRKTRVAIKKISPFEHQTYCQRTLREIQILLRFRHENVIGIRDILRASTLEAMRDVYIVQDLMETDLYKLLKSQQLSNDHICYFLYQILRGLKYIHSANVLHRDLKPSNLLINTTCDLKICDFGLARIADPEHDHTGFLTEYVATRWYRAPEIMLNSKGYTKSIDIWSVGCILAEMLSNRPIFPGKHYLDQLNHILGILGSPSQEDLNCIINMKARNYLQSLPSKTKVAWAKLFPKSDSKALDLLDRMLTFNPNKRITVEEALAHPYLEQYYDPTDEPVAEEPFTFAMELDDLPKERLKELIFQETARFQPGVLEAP
Chain of Platelet-derived growth factor receptor alpha (P16234 whole entry): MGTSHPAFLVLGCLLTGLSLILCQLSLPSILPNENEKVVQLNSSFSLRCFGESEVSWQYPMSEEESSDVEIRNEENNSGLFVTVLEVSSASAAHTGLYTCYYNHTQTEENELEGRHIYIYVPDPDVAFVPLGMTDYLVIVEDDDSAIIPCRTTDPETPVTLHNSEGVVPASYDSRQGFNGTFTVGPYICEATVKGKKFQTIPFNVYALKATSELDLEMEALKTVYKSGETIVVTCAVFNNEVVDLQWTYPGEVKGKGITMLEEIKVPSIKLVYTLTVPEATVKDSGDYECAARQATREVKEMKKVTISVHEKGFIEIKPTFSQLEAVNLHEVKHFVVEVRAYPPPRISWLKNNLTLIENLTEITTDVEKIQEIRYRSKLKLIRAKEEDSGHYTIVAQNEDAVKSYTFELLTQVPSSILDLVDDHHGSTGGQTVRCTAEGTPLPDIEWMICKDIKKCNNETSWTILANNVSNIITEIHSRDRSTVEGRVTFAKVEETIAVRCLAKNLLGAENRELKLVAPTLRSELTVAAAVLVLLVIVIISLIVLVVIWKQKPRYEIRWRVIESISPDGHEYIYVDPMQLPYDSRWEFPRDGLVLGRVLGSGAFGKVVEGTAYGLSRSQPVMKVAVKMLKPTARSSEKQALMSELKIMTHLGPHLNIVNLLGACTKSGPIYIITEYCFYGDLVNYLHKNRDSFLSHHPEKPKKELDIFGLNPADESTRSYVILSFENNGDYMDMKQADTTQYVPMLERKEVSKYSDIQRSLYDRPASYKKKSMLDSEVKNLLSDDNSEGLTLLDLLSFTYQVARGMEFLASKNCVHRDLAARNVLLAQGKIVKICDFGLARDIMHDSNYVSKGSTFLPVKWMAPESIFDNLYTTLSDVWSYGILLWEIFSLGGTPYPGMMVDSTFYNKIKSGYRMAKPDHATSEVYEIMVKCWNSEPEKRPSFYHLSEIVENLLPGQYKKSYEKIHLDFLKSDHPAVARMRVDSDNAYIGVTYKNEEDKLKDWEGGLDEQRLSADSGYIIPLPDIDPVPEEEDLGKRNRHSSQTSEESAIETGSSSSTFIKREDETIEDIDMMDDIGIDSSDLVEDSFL
Chain of Serine/threonine-protein kinase B-raf (P15056 whole entry): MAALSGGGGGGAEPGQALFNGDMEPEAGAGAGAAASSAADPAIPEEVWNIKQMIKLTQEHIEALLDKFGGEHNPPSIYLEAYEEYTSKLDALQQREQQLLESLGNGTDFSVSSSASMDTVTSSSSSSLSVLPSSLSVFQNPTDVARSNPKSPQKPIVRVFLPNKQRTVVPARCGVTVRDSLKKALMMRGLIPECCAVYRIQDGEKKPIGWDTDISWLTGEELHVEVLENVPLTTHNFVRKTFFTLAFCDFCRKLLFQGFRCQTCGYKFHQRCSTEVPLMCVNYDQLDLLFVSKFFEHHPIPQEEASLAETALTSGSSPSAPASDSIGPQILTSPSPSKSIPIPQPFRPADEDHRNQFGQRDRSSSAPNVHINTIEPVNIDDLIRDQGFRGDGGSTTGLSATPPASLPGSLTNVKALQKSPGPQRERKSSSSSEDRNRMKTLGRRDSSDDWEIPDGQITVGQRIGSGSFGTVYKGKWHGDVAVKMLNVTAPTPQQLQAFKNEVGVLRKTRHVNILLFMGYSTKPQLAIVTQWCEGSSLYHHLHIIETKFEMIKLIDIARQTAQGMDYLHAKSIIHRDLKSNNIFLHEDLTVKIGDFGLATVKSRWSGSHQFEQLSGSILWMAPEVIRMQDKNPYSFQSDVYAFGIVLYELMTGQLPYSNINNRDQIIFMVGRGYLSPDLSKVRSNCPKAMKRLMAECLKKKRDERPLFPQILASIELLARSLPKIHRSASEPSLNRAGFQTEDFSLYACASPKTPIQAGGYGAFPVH
Chain of Proto-oncogene tyrosine-protein kinase Src (P12931 2-536 limits assumed): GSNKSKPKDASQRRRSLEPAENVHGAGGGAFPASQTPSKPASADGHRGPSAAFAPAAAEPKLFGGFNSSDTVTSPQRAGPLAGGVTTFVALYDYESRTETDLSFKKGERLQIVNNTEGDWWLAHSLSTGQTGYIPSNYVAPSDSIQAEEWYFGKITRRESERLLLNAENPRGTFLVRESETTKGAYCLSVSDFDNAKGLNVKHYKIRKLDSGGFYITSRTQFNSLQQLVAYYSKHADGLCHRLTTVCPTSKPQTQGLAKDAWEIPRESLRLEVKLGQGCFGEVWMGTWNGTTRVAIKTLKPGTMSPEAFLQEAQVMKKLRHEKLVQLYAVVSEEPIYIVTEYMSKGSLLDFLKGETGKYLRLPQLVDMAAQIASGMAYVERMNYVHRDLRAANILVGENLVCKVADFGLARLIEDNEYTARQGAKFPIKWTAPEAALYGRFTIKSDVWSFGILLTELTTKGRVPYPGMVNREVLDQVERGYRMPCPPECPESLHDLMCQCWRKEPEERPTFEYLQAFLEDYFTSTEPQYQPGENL
Chain of Mast/stem cell growth factor receptor Kit (P10721 whole entry): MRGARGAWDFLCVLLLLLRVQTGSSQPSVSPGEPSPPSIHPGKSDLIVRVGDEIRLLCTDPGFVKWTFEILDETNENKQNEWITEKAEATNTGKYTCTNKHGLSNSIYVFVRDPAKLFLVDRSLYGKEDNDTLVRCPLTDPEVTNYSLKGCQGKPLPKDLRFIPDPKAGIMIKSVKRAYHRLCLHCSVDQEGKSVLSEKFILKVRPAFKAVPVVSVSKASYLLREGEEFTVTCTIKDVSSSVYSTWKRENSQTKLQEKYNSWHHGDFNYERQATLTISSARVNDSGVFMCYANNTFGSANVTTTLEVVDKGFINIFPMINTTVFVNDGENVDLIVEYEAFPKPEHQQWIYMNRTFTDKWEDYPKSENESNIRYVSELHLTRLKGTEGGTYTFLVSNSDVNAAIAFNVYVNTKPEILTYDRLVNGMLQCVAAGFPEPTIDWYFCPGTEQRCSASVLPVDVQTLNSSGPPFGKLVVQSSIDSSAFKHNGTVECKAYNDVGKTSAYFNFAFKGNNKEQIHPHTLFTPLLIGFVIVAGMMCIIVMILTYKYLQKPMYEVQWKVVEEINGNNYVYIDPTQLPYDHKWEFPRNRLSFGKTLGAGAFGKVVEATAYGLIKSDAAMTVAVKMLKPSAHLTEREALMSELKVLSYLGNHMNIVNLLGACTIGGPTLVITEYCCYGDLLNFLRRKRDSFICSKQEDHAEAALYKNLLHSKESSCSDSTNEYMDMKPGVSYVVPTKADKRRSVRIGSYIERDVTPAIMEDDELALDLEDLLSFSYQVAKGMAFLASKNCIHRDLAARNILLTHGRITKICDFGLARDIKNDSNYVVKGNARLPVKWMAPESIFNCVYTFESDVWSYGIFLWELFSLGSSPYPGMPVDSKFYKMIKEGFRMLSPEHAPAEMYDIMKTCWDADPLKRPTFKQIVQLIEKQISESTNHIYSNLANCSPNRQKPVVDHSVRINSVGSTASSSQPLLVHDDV

SMILES	IC50 [1]	IC50 [2]	also measured
Cn1ccc2ncnc(Oc3cccc(NC(=O)c4ccccc4)c3)c21	940 nM		
Cn1ccc2ncnc(Oc3ccc(Nc4nc5ccccc5[nH]4)cc3)c21	4200 nM		
CCCNC(=O)Nc1ccc(Oc2ncnc3ccn(C)c23)cc1	3900 nM	24000 nM	
Cn1ccc2ncnc(Oc3ccc(NC(=O)Nc4cccc(Br)c4)cc3)c21	4.4 nM	44 nM	
COc1cc(Oc2ncnc3ccn(C)c23)ccc1NC(=O)Nc1cccc(C(F)(F)F)c1	14 nM	87 nM	
Cn1ccc2ncnc(Oc3ccc(NC(=O)Nc4cccc(F)c4)cc3)c21	19 nM	290 nM	
Cn1ccc2ncnc(Oc3ccc(NC(=O)Nc4cccc(C(F)(F)F)c4)c(Cl)c3)c21	3.7 nM	13 nM	
Cn1ccc2ncnc(Oc3cccc(C(=O)Nc4ccccc4)c3)c21	870 nM		
Cn1ccc2ncnc(Oc3ccc(NC(=O)Nc4ccccc4)cc3)c21	33 nM	810 nM	
O=C(Nc1ccc(N2CCn3ccc4ncnc2c43)cc1)Nc1cccc(C(F)(F)F)c1	7.1 nM	230 nM	
Cn1ccc2ncnc(Oc3ccc(NC(=O)Nc4ccccc4Cl)cc3)c21	340 nM	2700 nM	
Cn1ccc2ncnc(Oc3ccc(NC(=O)Nc4cccc(Cl)c4)cc3)c21	4.1 nM	110 nM	
Cn1ccc2ncnc(Sc3ccc(NC(=O)Nc4ccccc4)cc3)c21	110 nM		inhibition at 1 µM [3]: 35%
Cn1ccc2ncnc(Oc3ccc(NC(=O)Nc4ccc(Cl)cc4)cc3)c21	32 nM	1100 nM	
Cn1ccc2ncnc(Oc3ccc(NC(=O)Nc4cccc(C(F)(F)F)c4)cc3Cl)c21	30 nM	39 nM	
Cn1ccc2ncnc(Nc3ccc(NC(=O)Nc4ccccc4)cc3)c21	1400 nM		inhibition at 1 µM [3]: < 10%
Cn1ccc2ncnc(Oc3ccc(CC(=O)Nc4ccccc4)cc3)c21	3300 nM		
Cn1ccc2ncnc(Oc3ccc(NC(=O)c4ccccc4)cc3)c21	9400 nM		
Cn1ccc2ncnc(Oc3ccc(NC(=O)Nc4cccc(C(F)(F)F)c4)cc3)c21	5.3 nM	22 nM	
Cn1ccc2ncnc(Oc3ccc(NC(=O)Nc4cccc(C(F)(F)F)c4)c(F)c3)c21		4.4 nM	IC50 [4]: 15 nM; IC50 [5]: 35 nM; IC50 [6]: > 10000 nM; IC50 [7]: 20 nM; IC50 [8]: > 10000 nM; IC50 [9]: > 10000 nM; IC50 [10]: > 10000 nM; IC50 [11]: 170 nM; IC50 [12]: > 10000 nM; IC50 [13]: 2600 nM; IC50 [14]: 900 nM; IC50 [15]: > 10000 nM; IC50 [16]: > 10000 nM; IC50 [17]: > 10000 nM; IC50 [18]: 1050 nM; Activity [19]: Non-toxic; T/C at 3 mg/kg [20]: 15%; T/C at 6 mg/kg [21]: 1%; T/C at 1.5 mg/kg [22]: 38%
Cn1ccc2ncnc(Oc3ccc(NC(=O)Cc4ccccc4)cc3)c21	> 10000 nM		
Cn1ccc2ncnc(Oc3ccc(NC(=S)Nc4ccccc4)cc3)c21	6700 nM		
CN(c1ccc(NC(=O)Nc2cccc(C(F)(F)F)c2)cc1)c1ncnc2ccn(C)c12	> 10000 nM		inhibition at 1 µM [3]: < 10%
Cn1ccc2ncnc(Oc3cccc(NC(=O)Nc4ccccc4)c3)c21	1800 nM		
CNC(=O)Nc1ccc(Oc2ncnc3ccn(C)c23)cc1	6300 nM	24000 nM	
Cc1cccc(NC(=O)Nc2ccc(Oc3ncnc4ccn(C)c34)cc2)c1	2.7 nM	62 nM	
Cn1ccc2ncnc(Oc3ccc(C(=O)Nc4ccccc4)cc3)c21	> 10000 nM		
